{"source": "the supplement of paper PMC10307832", "data": [{"compound": "COc1cccc2cc(-c3nc([C@H]4CC[C@H](C(=O)O)CC4)n4ncnc(N)c34)[nH]c12 [OSI-027] + CC(C)C[C@H](NC(=O)[C@H](Cc1ccccc1)NC(=O)c1cnccn1)B(O)O [Bortezomib] (partner 0.002 µM)", "assay": "relative viability (nuclei count vs DMSO), 5 days (fraction); higher = more cells survive", "conditions": "first compound 0.01 µM", "outline": "(§1)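 Relative viability was taken as the ratio of nuclei in treated wells to nuclei in vehicle wells. Lung cancer cell lines in 1536-well plates received compounds by pin tool one day after seeding, either one drug alone or a fixed anchor-drug dose plus five library-drug doses (not always all listed) in √10 steps. Nuclei were counted on 4× images after 5 days of treatment, and values are medians of duplicate plates.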", "values": [{"cell line": "PC-3 [JPC-3]", "relative viability": 0.816}, {"cell line": "SW 1573", "relative viability": 1.18}, {"cell line": "NCI-H2405", "relative viability": 0.982}, {"cell line": "NCI-H1703", "relative viability": 0.361}, {"cell line": "NCI-H1993", "relative viability": 1.11}, {"cell line": "ChaGo-K-1", "relative viability": 0.987}, {"cell line": "NCI-H1355", "relative viability": 1.24}, {"cell line": "HCC-366", "relative viability": 1.18}, {"cell line": "NCI-H1915", "relative viability": 1.04}, {"cell line": "NCI-H838", "relative viability": 0.751}, {"cell line": "A-427", "relative viability": 1.13}, {"cell line": "NCI-H2009", "relative viability": 1.07}, {"cell line": "ABC-1", "relative viability": 0.284}, {"cell line": "Calu-6", "relative viability": 1.34}, {"cell line": "NCI-H1792", "relative viability": 1.03}, {"cell line": "EBC-1", "relative viability": 0.497}, {"cell line": "IA-LM", "relative viability": 0.736}]}, {"compound": "COc1cccc2cc(-c3nc([C@H]4CC[C@H](C(=O)O)CC4)n4ncnc(N)c34)[nH]c12 [OSI-027] + CC(C)C[C@H](NC(=O)[C@H](Cc1ccccc1)NC(=O)c1cnccn1)B(O)O [Bortezomib] (partner 0.002 µM)", "assay": "relative viability (nuclei count vs DMSO), 5 days (fraction); higher = more cells survive", "conditions": "first compound 0.03162 µM", "outline": "as §1", "values": [{"cell line": "NCI-H2126", "relative viability": 1.13}, {"cell line": "EPLC-272H", "relative viability": 0.978}, {"cell line": "NCI-H1755", "relative viability": 0.96}, {"cell line": "NCI-H2023", "relative viability": 0.926}, {"cell line": "NCI-H1650", "relative viability": 0.195}, {"cell line": "H3255", "relative viability": 0.761}, {"cell line": "NCI-H1975", "relative viability": 0.337}, {"cell line": "PC-14", "relative viability": 0.93}, {"cell line": "NCI-H1299", "relative viability": 1.03}, {"cell line": "NCI-H1437", "relative viability": 0.409}, {"cell line": "HOP-62", "relative viability": 0.726}, {"cell line": "HCC-44", "relative viability": 1}, {"cell line": "BEN", "relative viability": 0.83}, {"cell line": "LOU-NH91", "relative viability": 0.486}, {"cell line": "NCI-H661", "relative viability": 0.734}, {"cell line": "NCI-H1651", "relative viability": 0.954}, {"cell line": "PC-3 [JPC-3]", "relative viability": 0.731}, {"cell line": "SW 1573", "relative viability": 0.897}, {"cell line": "NCI-H2405", "relative viability": 1.04}, {"cell line": "NCI-H1703", "relative viability": 0.302}, {"cell line": "NCI-H1993", "relative viability": 0.898}, {"cell line": "ChaGo-K-1", "relative viability": 1.17}, {"cell line": "NCI-H1355", "relative viability": 1.19}, {"cell line": "HCC-366", "relative viability": 1.2}, {"cell line": "NCI-H1915", "relative viability": 0.995}, {"cell line": "NCI-H838", "relative viability": 0.71}, {"cell line": "A-427", "relative viability": 0.965}, {"cell line": "NCI-H2009", "relative viability": 1.09}, {"cell line": "ABC-1", "relative viability": 0.366}, {"cell line": "Calu-6", "relative viability": 0.956}, {"cell line": "NCI-H1792", "relative viability": 0.688}, {"cell line": "EBC-1", "relative viability": 0.557}, {"cell line": "IA-LM", "relative viability": 0.765}]}, {"compound": "COc1cccc2cc(-c3nc([C@H]4CC[C@H](C(=O)O)CC4)n4ncnc(N)c34)[nH]c12 [OSI-027] + CC(C)C[C@H](NC(=O)[C@H](Cc1ccccc1)NC(=O)c1cnccn1)B(O)O [Bortezomib] (partner 0.002 µM)", "assay": "relative viability (nuclei count vs DMSO), 5 days (fraction); higher = more cells survive", "conditions": "first compound 0.1 µM", "outline": "as §1", "values": [{"cell line": "NCI-H2126", "relative viability": 1.05}, {"cell line": "EPLC-272H", "relative viability": 0.764}, {"cell line": "NCI-H1755", "relative viability": 0.983}, {"cell line": "NCI-H2023", "relative viability": 0.898}, {"cell line": "NCI-H1650", "relative viability": 0.206}, {"cell line": "H3255", "relative viability": 0.619}, {"cell line": "NCI-H1975", "relative viability": 0.464}, {"cell line": "PC-14", "relative viability": 0.955}, {"cell line": "NCI-H1299", "relative viability": 1.06}, {"cell line": "NCI-H1437", "relative viability": 0.538}, {"cell line": "HOP-62", "relative viability": 0.377}, {"cell line": "HCC-44", "relative viability": 0.874}, {"cell line": "BEN", "relative viability": 0.488}, {"cell line": "LOU-NH91", "relative viability": 0.473}, {"cell line": "NCI-H661", "relative viability": 0.802}, {"cell line": "NCI-H1651", "relative viability": 0.884}, {"cell line": "PC-3 [JPC-3]", "relative viability": 0.807}, {"cell line": "SW 1573", "relative viability": 0.831}, {"cell line": "NCI-H2405", "relative viability": 0.872}, {"cell line": "NCI-H1703", "relative viability": 0.238}, {"cell line": "NCI-H1993", "relative viability": 0.788}, {"cell line": "ChaGo-K-1", "relative viability": 0.554}, {"cell line": "NCI-H1355", "relative viability": 1.01}, {"cell line": "HCC-366", "relative viability": 1.03}, {"cell line": "NCI-H1915", "relative viability": 1.04}, {"cell line": "NCI-H838", "relative viability": 0.78}, {"cell line": "A-427", "relative viability": 0.967}, {"cell line": "NCI-H2009", "relative viability": 0.933}, {"cell line": "ABC-1", "relative viability": 0.331}, {"cell line": "Calu-6", "relative viability": 1}, {"cell line": "NCI-H1792", "relative viability": 0.858}, {"cell line": "EBC-1", "relative viability": 0.515}, {"cell line": "IA-LM", "relative viability": 0.438}]}, {"compound": "COc1cccc2cc(-c3nc([C@H]4CC[C@H](C(=O)O)CC4)n4ncnc(N)c34)[nH]c12 [OSI-027] + CC(C)C[C@H](NC(=O)[C@H](Cc1ccccc1)NC(=O)c1cnccn1)B(O)O [Bortezomib] (partner 0.002 µM)", "assay": "relative viability (nuclei count vs DMSO), 5 days (fraction); higher = more cells survive", "conditions": "first compound 0.3162 µM", "outline": "as §1", "values": [{"cell line": "NCI-H2126", "relative viability": 0.989}, {"cell line": "EPLC-272H", "relative viability": 0.849}, {"cell line": "NCI-H1755", "relative viability": 0.89}, {"cell line": "NCI-H2023", "relative viability": 0.687}, {"cell line": "NCI-H1650", "relative viability": 0.201}, {"cell line": "H3255", "relative viability": 0.545}, {"cell line": "NCI-H1975", "relative viability": 0.318}, {"cell line": "PC-14", "relative viability": 0.989}, {"cell line": "NCI-H1299", "relative viability": 1.08}, {"cell line": "NCI-H1437", "relative viability": 0.487}, {"cell line": "HOP-62", "relative viability": 0.65}, {"cell line": "HCC-44", "relative viability": 0.838}, {"cell line": "BEN", "relative viability": 0.379}, {"cell line": "LOU-NH91", "relative viability": 0.546}, {"cell line": "NCI-H661", "relative viability": 0.666}, {"cell line": "NCI-H1651", "relative viability": 0.929}, {"cell line": "PC-3 [JPC-3]", "relative viability": 0.877}, {"cell line": "SW 1573", "relative viability": 0.776}, {"cell line": "NCI-H2405", "relative viability": 0.866}, {"cell line": "NCI-H1703", "relative viability": 0.233}, {"cell line": "NCI-H1993", "relative viability": 0.625}, {"cell line": "ChaGo-K-1", "relative viability": 0.838}, {"cell line": "NCI-H1355", "relative viability": 0.926}, {"cell line": "HCC-366", "relative viability": 1.07}, {"cell line": "NCI-H1915", "relative viability": 0.968}, {"cell line": "NCI-H838", "relative viability": 0.531}, {"cell line": "A-427", "relative viability": 0.803}, {"cell line": "NCI-H2009", "relative viability": 0.929}, {"cell line": "ABC-1", "relative viability": 0.405}, {"cell line": "Calu-6", "relative viability": 0.906}, {"cell line": "NCI-H1792", "relative viability": 0.899}, {"cell line": "EBC-1", "relative viability": 0.53}, {"cell line": "IA-LM", "relative viability": 0.21}]}, {"compound": "COc1cccc2cc(-c3nc([C@H]4CC[C@H](C(=O)O)CC4)n4ncnc(N)c34)[nH]c12 [OSI-027] + CC(C)C[C@H](NC(=O)[C@H](Cc1ccccc1)NC(=O)c1cnccn1)B(O)O [Bortezomib] (partner 0.002 µM)", "assay": "relative viability (nuclei count vs DMSO), 5 days (fraction); higher = more cells survive", "conditions": "first compound 1 µM", "outline": "as §1", "values": [{"cell line": "NCI-H2126", "relative viability": 0.87}, {"cell line": "EPLC-272H", "relative viability": 0.688}, {"cell line": "NCI-H1755", "relative viability": 0.556}, {"cell line": "NCI-H2023", "relative viability": 0.358}, {"cell line": "NCI-H1650", "relative viability": 0.19}, {"cell line": "H3255", "relative viability": 0.534}, {"cell line": "NCI-H1975", "relative viability": 0.274}, {"cell line": "PC-14", "relative viability": 0.652}, {"cell line": "NCI-H1299", "relative viability": 1.1}, {"cell line": "NCI-H1437", "relative viability": 0.258}, {"cell line": "HOP-62", "relative viability": 0.609}, {"cell line": "HCC-44", "relative viability": 0.413}, {"cell line": "BEN", "relative viability": 0.389}, {"cell line": "LOU-NH91", "relative viability": 0.455}, {"cell line": "NCI-H661", "relative viability": 0.395}, {"cell line": "NCI-H1651", "relative viability": 0.737}, {"cell line": "PC-3 [JPC-3]", "relative viability": 0.815}, {"cell line": "SW 1573", "relative viability": 0.732}, {"cell line": "NCI-H2405", "relative viability": 0.425}, {"cell line": "NCI-H1703", "relative viability": 0.187}, {"cell line": "NCI-H1993", "relative viability": 0.542}, {"cell line": "ChaGo-K-1", "relative viability": 0.762}, {"cell line": "NCI-H1355", "relative viability": 0.528}, {"cell line": "HCC-366", "relative viability": 0.733}, {"cell line": "NCI-H1915", "relative viability": 0.898}, {"cell line": "NCI-H838", "relative viability": 0.325}, {"cell line": "A-427", "relative viability": 0.578}, {"cell line": "NCI-H2009", "relative viability": 0.592}, {"cell line": "ABC-1", "relative viability": 0.27}, {"cell line": "Calu-6", "relative viability": 0.896}, {"cell line": "NCI-H1792", "relative viability": 0.212}, {"cell line": "EBC-1", "relative viability": 0.375}, {"cell line": "IA-LM", "relative viability": 0.113}]}, {"compound": "Cc1nc(NC(=O)N2CCC[C@H]2C(N)=O)sc1-c1ccnc(C(C)(C)C(F)(F)F)c1 [Alpelisib] + CC(C)C[C@H](NC(=O)[C@H](Cc1ccccc1)NC(=O)c1cnccn1)B(O)O [Bortezomib] (partner 0.002 µM)", "assay": "relative viability (nuclei count vs DMSO), 5 days (fraction); higher = more cells survive", "conditions": "first compound 0.04 µM", "outline": "as §1", "values": [{"cell line": "NCI-H2126", "relative viability": 1.06}, {"cell line": "EPLC-272H", "relative viability": 0.902}, {"cell line": "NCI-H1755", "relative viability": 0.911}, {"cell line": "NCI-H2023", "relative viability": 0.926}, {"cell line": "NCI-H1650", "relative viability": 0.201}, {"cell line": "H3255", "relative viability": 0.852}, {"cell line": "NCI-H1975", "relative viability": 0.419}]}]}
